Measurements published in ChEMBL document CHEMBL4311981, “Synthesis, anticancer activity, and molecular modeling of 1,4-naphthoquinones that inhibit MKK7 and Cdc25” (Eur J Med Chem, 2019).
The source made the active and inactive calls. No cut-off for these calls is given here.

What was measured:
THP-1 = test: Cytotoxicity against human THP1 cells assessed as reduction in cell viability incubated for 24 hrs by CellTiter-Glo luminescent cell viability assay; type: functional, cell-based; conditions: THP-1, 24 h
HL-60 = test: Cytotoxicity against human HL60 cells assessed as reduction in cell viability incubated for 24 hrs by CellTiter-Glo luminescent cell viability assay; type: functional, cell-based; conditions: HL-60, 24 h
SW982 = test: Cytotoxicity against human SW982 cells assessed as reduction in cell viability incubated for 24 hrs by CellTiter-Glo luminescent cell viability assay; type: functional, cell-based; conditions: SW982, 24 h
MCF7 = test: Cytotoxicity against human MCF7 cells assessed as reduction in cell viability incubated for 24 hrs by CellTiter-Glo luminescent cell viability assay; type: functional, cell-based; conditions: MCF7, 24 h
LS174T = test: Cytotoxicity against human LS174T cells assessed as reduction in cell viability incubated for 24 hrs by CellTiter-Glo luminescent cell viability assay; type: functional, cell-based
A549 = test: Cytotoxicity against human A549 cells assessed as reduction in cell viability incubated for 24 hrs by CellTiter-Glo luminescent cell viability assay; type: functional, cell-based; conditions: A549, 24 h
[1] = biological target: T1, Neutrophil elastase (Homo sapiens) (UniProt P08246); test: Inhibition of recombinant HNE (unknown origin) at <50 uM using N-methylsuccinyl-Ala-Ala-Pro-Val-7-amino-4-methylcoumarin, as a substrate measured every 30 sec for 10 mins by fluorometric assay
T1 sequence (whole entry): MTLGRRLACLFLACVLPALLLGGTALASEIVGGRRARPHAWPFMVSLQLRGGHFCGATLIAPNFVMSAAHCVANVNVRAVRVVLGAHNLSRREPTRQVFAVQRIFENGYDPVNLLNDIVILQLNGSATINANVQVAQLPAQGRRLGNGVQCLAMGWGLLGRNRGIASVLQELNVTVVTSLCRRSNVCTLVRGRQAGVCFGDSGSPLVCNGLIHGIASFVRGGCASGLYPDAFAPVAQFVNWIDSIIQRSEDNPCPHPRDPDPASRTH

Jurkat = test: cells; conditions: Homo sapiens, 24 h
Description: Cytotoxicity against human Jurkat cells assessed as reduction in cell viability incubated for 24 hrs by CellTiter-Glo luminescent cell viability assay

[2] = biological target: T2, Dual specificity mitogen-activated protein kinase kinase 7 (Homo sapiens) (UniProt O14733); test: Binding affinity to MKK7 (unknown origin) expressed in HEK293 cells assessed as dissociation constant at <30 uM by kinomescan method; type: cell-based
T2 sequence (whole entry): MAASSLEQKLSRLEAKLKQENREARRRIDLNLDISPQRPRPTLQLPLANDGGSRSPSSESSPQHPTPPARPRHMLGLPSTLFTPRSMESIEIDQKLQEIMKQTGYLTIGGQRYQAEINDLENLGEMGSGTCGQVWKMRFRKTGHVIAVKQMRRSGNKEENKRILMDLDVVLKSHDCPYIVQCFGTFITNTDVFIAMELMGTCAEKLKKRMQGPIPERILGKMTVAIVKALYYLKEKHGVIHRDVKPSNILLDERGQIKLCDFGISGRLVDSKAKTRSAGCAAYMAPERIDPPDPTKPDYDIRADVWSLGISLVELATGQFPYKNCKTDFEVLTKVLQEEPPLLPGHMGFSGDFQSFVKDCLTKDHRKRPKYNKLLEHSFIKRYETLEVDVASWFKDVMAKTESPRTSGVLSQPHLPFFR

MONO-MAC-6 = test: Cytotoxicity against human MONO-MAC-6 cells assessed as reduction in cell viability incubated for 24 hrs by CellTiter-Glo luminescent cell viability assay; type: functional, cell-based; conditions: MONO-MAC-6, 24 h
U-937 = test: Cytotoxicity against human U937 cells assessed as reduction in cell viability incubated for 24 hrs by CellTiter-Glo luminescent cell viability assay; type: functional, cell-based; conditions: U-937, 24 h
PBMC = test: Cytotoxicity against human PBMC cells assessed as reduction in cell viability incubated for 24 hrs by CellTiter-Glo luminescent cell viability assay; type: cell-based; conditions: read-out: IC50
[3] = biological target: T3, M-phase inducer phosphatase 1 (Homo sapiens, UniProt P30304)
T3 sequence (P30304 whole entry): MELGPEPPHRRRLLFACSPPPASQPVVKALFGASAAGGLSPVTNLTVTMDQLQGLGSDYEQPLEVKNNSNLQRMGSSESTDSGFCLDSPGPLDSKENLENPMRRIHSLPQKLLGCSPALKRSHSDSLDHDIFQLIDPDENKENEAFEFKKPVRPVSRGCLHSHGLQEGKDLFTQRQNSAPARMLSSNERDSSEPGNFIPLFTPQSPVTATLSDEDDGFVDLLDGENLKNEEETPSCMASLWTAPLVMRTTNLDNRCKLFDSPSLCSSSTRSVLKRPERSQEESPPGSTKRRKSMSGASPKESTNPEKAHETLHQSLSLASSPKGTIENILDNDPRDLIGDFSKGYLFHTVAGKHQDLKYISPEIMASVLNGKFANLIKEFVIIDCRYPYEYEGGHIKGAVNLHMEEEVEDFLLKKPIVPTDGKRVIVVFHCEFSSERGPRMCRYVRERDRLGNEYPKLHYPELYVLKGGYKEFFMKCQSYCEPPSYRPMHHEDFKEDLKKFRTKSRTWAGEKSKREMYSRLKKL
Description: Inhibition of recombinant Cdc25A (unknown origin) using OMFP as substrate measured every 30 sec for 10 mins by fluorometric assay

[4] = biological target: T4, M-phase inducer phosphatase 2 (Homo sapiens, UniProt P30305)
T4 sequence (P30305 whole entry): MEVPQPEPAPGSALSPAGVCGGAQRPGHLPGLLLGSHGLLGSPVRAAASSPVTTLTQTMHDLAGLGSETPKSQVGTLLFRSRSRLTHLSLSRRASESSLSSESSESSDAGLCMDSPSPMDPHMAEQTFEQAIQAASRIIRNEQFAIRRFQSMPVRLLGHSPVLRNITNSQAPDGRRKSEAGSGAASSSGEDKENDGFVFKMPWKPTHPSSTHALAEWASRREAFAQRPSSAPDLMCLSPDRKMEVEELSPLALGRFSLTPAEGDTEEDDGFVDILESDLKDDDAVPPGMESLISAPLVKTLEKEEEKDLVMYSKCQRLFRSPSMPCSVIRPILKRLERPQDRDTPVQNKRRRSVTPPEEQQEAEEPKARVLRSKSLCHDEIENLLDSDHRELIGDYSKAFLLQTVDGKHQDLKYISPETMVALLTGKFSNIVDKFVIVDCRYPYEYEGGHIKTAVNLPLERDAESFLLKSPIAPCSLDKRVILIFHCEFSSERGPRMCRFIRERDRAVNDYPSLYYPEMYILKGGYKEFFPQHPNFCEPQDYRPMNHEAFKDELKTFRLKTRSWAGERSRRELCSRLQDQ
Description: Inhibition of recombinant Cdc25B (unknown origin) using OMFP as substrate measured every 30 sec for 10 mins by fluorometric assay

[5] = biological target: T5, Dual specificity mitogen-activated protein kinase kinase 7 (Homo sapiens, UniProt O14733); test: biochemical
T5 sequence (O14733 whole entry): T2 sequence (whole entry)
Description: Binding affinity to MKK7 (unknown origin) expressed in HEK293 cells assessed as dissociation constant by kinomescan method

Row | Structure (SMILES) | IC50 (THP-1) [µM] | IC50 (HL-60) [µM] | IC50 (SW982) [µM] | IC50 (MCF7) [µM] | IC50 (LS174T) [µM] | IC50 (A549) [µM] | inhibition [1] | IC50 (Jurkat) [µM] | Activity [2] | IC50 (MONO-MAC-6) [µM] | IC50 (U-937) [µM] | IC50 (PBMC) [µM] | IC50 [3] [µM] | IC50 [4] [µM] | inhibition [2] | Kd [5] [µM]
1 | CSC1=C(SC)C(=O)c2ccccc2C1=O | 1.7 | 0.7 | 7.6 | 7.4 | 15.1 | 12.4 | inactive | 1.4 |  |  |  |  |  |  |  | 
2 | O=C(O)CCNC(=O)Cn1cnc2ccccc2c1=O |  |  |  |  |  |  |  |  | inactive |  |  |  |  |  |  | 
3 | CC1=C(SCCO)C(=O)c2ccccc2C1=O | 3.9 | 9.3 | 19.3 | 30.9 | 39.4 | 41.3 | inactive | 6.8 | inactive | 6.3 | 12.1 | 13.3 | 4.5 | 10.9 |  | 
4 | COC(=O)c1ccc(NC2=C(Cl)C(=O)c3ccccc3C2=O)cc1 |  |  |  |  |  |  | inactive |  |  |  |  |  | 20.3 | 10.9 | inactive | 
5 | O=C(O)CCSc1nc(O)c2ccccc2n1 |  |  |  |  |  |  |  |  | inactive |  |  |  |  |  |  | 
6 | COCCSC1=C(C)C(=O)c2ccccc2C1=O | 2.2 | 1.6 | 9.7 | 14.9 | 15.7 | 18.6 | inactive | 3.2 |  | 1.7 | 5.3 |  | 5.7 | 6.5 |  | 14
7 | CC1=CC(=O)c2ccccc2C1=O [MENADIONE] |  | 5.6 | 9.3 | 9 | 26.6 | 25.1 | inactive | 5 | inactive |  | 6.3 | 14.5 | 6.9 | 3.9 |  | 
8 | O=C(O)CCSC1=CC(=O)c2ccccc2C1=O | 17.6 | 15 | 10.5 |  |  |  | inactive | 9.1 |  | 22 | 18.6 | 23.4 | 1.5 | 1.6 |  | 0.23
9 | COC1=CC(=O)c2ccccc2C1=O [2-Methoxy-1,4-naphthoquinone] | 16.6 | 7.1 | 29.8 | 6.1 | 33.7 | 16.4 | inactive | 16.1 | inactive | 4.8 | 13.9 | 29.8 | 2.3 | 46.8 |  | 
10 | CC1=CC(=O)c2c(O)cccc2C1=O |  |  |  |  |  |  | inactive |  |  |  |  |  |  |  |  | 
11 | O=C(O)CCCNC1=C(Cl)C(=O)c2ccccc2C1=O |  |  |  |  |  |  | inactive |  |  |  |  |  | 8.2 | 10.9 | inactive | 
12 | COC(=O)c1ccc(NC2=C(N3CCCCC3)C(=O)c3ccccc3C2=O)cc1 |  |  |  |  |  |  | inactive |  |  |  |  |  | 11.6 | 14.2 | inactive | 
13 | CCSC1=C(C)C(=O)c2ccccc2C1=O | 2.9 | 3.1 | 7.8 | 12.2 | 17.3 | 21.5 | inactive | 3.9 |  | 3.3 | 6.7 |  | 5.5 | 4.7 |  | 13
